Tests used:
[1] = tested on: HT29 cells, phospho-p38 western blot, 24 h; assay: altered phosphorylated p38 MAPK amounts – HT29 cells, chemiluminescent western blot, powder samples, counter-screen for KLF5 inhibitor project, late-stage follow-up (AID 588658); settings: measured here: phospho-p38 fold change vs DMSO; at 10 µM
[2] = target: Mitogen-activated protein kinase 14 (Homo sapiens) (UniProt Q16539); assay: as above; settings: HT29 cells, phospho-p38 western blot, 24 h; at 10 µM; stronger effect = higher value
Mitogen-activated protein kinase 14 (Homo sapiens), sequence (Q16539 whole entry, looked up): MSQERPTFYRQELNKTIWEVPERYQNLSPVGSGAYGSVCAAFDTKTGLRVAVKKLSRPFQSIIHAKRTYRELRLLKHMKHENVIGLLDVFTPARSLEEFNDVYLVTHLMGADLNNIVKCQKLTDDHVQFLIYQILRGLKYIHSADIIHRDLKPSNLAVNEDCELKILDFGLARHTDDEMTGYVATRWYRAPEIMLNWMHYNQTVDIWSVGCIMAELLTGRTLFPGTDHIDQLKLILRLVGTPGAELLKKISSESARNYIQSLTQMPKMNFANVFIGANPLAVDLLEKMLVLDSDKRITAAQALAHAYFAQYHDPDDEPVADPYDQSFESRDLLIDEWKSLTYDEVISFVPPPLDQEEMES

**Q.** What does the source list for `CN(C(=O)CNC(=O)/C=C/c1cccc(Cl)c1)C1CCS(=O)(=O)C1` (stereo unspecified)?
**A.** fold change [1]: 3.85; inhibition [2]: -285%

**Q.** With `CN(C(=O)COC(=O)/C=C/c1cccc([N+](=O)[O-])c1)C1CCS(=O)(=O)C1` (stereo unspecified) as the molecule, how does the fold change [1] read?
**A.** 1.85

**Q.** And the inhibition [2]?
**A.** -85.3%

**Q.** For `CN(C(=O)CNC(=O)/C=C/c1cccc(Cl)c1)C1CCS(=O)(=O)CC1`, which fold change [1] is on record?
**A.** 3.93

**Q.** What about the inhibition [2] of the same molecule?
**A.** -293%

Source: PubChem BioAssay AID588658 (The Scripps Research Institute Molecular Screening Center, 2011)
